The record followed here is US7732475B2, “Histone deacetylase inhibitors” (Takeda San Diego, Inc., priority 2005, dated 2010).

Sequence of HDAC2 (Q92769 with tags, fused parts or gaps): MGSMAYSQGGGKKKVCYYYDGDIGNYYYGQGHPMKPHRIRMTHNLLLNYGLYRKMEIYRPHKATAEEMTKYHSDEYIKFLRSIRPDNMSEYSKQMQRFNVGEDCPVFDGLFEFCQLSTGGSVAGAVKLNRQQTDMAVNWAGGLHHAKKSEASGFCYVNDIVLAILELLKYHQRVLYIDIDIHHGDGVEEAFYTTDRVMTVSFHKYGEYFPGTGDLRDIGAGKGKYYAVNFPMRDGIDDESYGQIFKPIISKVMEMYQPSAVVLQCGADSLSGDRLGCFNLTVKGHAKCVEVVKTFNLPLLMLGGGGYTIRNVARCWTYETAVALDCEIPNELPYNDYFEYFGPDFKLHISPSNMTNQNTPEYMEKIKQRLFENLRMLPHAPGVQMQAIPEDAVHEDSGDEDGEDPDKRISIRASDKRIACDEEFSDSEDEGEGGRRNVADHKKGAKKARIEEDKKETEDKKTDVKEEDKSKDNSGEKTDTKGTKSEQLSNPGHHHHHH

The experiment addresses HDAC2 (Homo sapiens, UniProt Q92769). Description: HDAC2 fluorescence inhibition assay (tBoc-Lys(Ac)-AMC).
With `Nc1ccccc1NC(=O)c1ccc(Cn2ncc3ccccc32)cc1` [Example 1, 4-((1H-indazol-1-yl)methyl)-N-(2-aminophenyl)benzamide], the 50% inhibitory concentration (IC50) (in general, the concentration needed to halve the response being measured) was ≤ 50 nM.
As to `Nc1ccccc1NC(=O)c1ccc(Cn2cc3ccccc3n2)cc1` [Example 2, 4-((2H-indazol-2-yl)methyl)-N-(2-aminophenyl)benzamide], the IC50 was 50 to 100 nM.
In the case of `CC(=O)Nc1ccc2c(cnn2Cc2ccc(C(=O)Nc3ccccc3N)cc2)c1` [Example 3, 4-((5-acetamido-1H-indazol-1-yl)methyl)-N-(2-aminophenyl)benzamide] it was ≤ 50 nM.
Turning to `CC(=O)Nc1ccc2nn(Cc3ccc(C(=O)Nc4ccccc4N)cc3)cc2c1` [Example 4, 4-((5-acetamido-2H-indazol-2-yl)methyl)-N-(2-aminophenyl)benzamide], the half-maximal inhibitory concentration (IC50) was ≤ 50 nM.
In the case of `Nc1ccccc1NC(=O)c1ccc(Cn2ncc3cc([N+](=O)[O-])ccc32)cc1` [Example 5, N-(2-aminophenyl)-4-((5-nitro-1H-indazol-1-yl)methyl)benzamide] it was ≤ 50 nM.
As to `Nc1ccccc1NC(=O)c1ccc(Cn2ncc3cc(NC(=O)c4ccccc4)ccc32)cc1` [Example 6, 4-((5-benzamido-1H-indazol-1-yl)methyl)-N-(2-aminophenyl)benzamide], the concentration for half-maximal inhibition (IC50) was ≤ 50 nM.
In the case of `Nc1ccc2c(cnn2Cc2ccc(C(=O)Nc3ccccc3N)cc2)c1` [Example 7, 4-((5-amino-1H-indazol-1-yl)methyl)-N-(2-aminophenyl)benzamide] it was ≤ 50 nM.
In the case of `Nc1ccccc1NC(=O)c1ccc(Cn2cc3cc([N+](=O)[O-])ccc3n2)cc1` [Example 8, N-(2-aminophenyl)-4-((5-nitro-2H-indazol-2-yl)methyl)benzamide] it was ≤ 50 nM; in that of `Nc1ccc2nn(Cc3ccc(C(=O)Nc4ccccc4N)cc3)cc2c1` [Example 9, 4-((5-amino-2H-indazol-2-yl)methyl)-N-(2-aminophenyl)benzamide], 50 to 100 nM; in that of `Nc1ccccc1NC(=O)c1ccc(Cn2cc3cc(NC(=O)c4ccccc4)ccc3n2)cc1` [Example 10, 4-((5-benzamido-2H-indazol-1-yl)methyl)-N-(2-aminophenyl)benzamide], ≤ 50 nM.
In the case of `COCCOC(=O)Nc1ccc2nn(Cc3ccc(C(=O)Nc4ccccc4N)cc3)cc2c1` [Example 11, 2-Methoxyethyl 2-(4-((2-aminophenyl)carbamoyl)benzyl)-2H-indazol-5-ylcarbamate] it was ≤ 50 nM; in that of `COC(=O)Nc1ccc2nn(Cc3ccc(C(=O)Nc4ccccc4N)cc3)cc2c1` [Example 12, Methyl 2-(4-((2-aminophenyl)carbamoyl)benzyl)-2H-indazol-5-ylcarbamate], ≤ 50 nM.
For the molecule `COCCOC(=O)Nc1ccc2c(cnn2Cc2ccc(C(=O)Nc3ccccc3N)cc2)c1` [Example 13, 2-Methoxyethyl 1-(4-((2-aminophenyl)carbamoyl)benzyl)-1H-indazol-5-ylcarbamate], the half-maximal inhibitory concentration (IC50) is ≤ 50 nM.
To `COC(=O)Nc1ccc2c(cnn2Cc2ccc(C(=O)Nc3ccccc3N)cc2)c1` [Example 14, Methyl 1-(4-((2-aminophenyl)carbamoyl)benzyl)-1H-indazol-5-ylcarbamate] belongs ≤ 50 nM; to `Nc1ccccc1NC(=O)c1ccc(Cn2ncc3cc(NC(=O)OCc4ccccc4)ccc32)cc1` [Example 15, Benzyl 1-(4-((2-aminophenyl)carbamoyl)benzyl)-1H-indazol-5-ylcarbamate], ≤ 50 nM; to `Nc1ccccc1NC(=O)c1ccc(Cn2cc3cc(NC(=O)OCc4ccccc4)ccc3n2)cc1` [Example 16, Benzyl 2-(4-((2-aminophenyl)carbamoyl)benzyl)-2H-indazol-5-ylcarbamate], ≤ 50 nM.
To `Nc1ccc(-c2ccccc2)cc1NC(=O)c1ccc(Cn2cc3cc([N+](=O)[O-])ccc3n2)cc1` [Example 17, N-(4-Amino-biphenyl-3-yl)-4-(5-nitro-indazol-2-ylmethyl)-benzamide] belongs ≤ 50 nM.
Take `Nc1ccccc1NC(=O)c1ccc(Cn2cc3cc(NC(=O)N4CCOCC4)ccc3n2)cc1` [Example 18, N-(2-(4-((2-Aminophenyl)carbamoyl)benzyl)-2H-indazol-5-yl)morpholine-4-carboxamide]: the half-inhibitory concentration (IC50) was ≤ 50 nM.
In the case of `Nc1ccccc1NC(=O)c1ccc(Cn2cc3ccccc3n2)s1` [Example 19, 5-((2H-Indazol-2-yl)methyl)-N-(2-aminophenyl)thiophene-2-carboxamide] it was 100 to 500 nM; in that of `Nc1ccccc1NC(=O)c1ccc(Cn2cc3cc([N+](=O)[O-])ccc3n2)s1` [Example 20, N-(2-Aminophenyl)-5-((5-nitro-2H-indazol-2-yl)methyl)thiophene-2-carboxamide], ≤ 50 nM; in that of `Nc1ccccc1NC(=O)c1ccc(Cn2ncc3cc(NC(=O)N4CCOCC4)ccc32)cc1` [Example 21, N-(1-(4-((2-Aminophenyl)carbamoyl)benzyl)-1H-indazol-5-yl)morpholine-4-carboxamide], ≤ 50 nM.
To `Nc1ccccc1NC(=O)c1ccc(Cn2ncc3cc(NC(=O)OCCN4CCOCC4)ccc32)cc1` [Example 22, 2-Morpholinoethyl 1-(4-((2-aminophenyl)carbamoyl)benzyl)-1H-indazol-5-ylcarbamate] belongs ≤ 50 nM; to `Nc1ccccc1NC(=O)c1ccc(Cn2ncc3cc(NC(=O)OCc4cccnc4)ccc32)cc1` [Example 23, Pyridin-3-ylmethyl 1-(4-((2-aminophenyl)carbamoyl)benzyl)-1H-indazol-5-ylcarbamate], ≤ 50 nM; to `Nc1ccccc1NC(=O)c1ccc(Cn2ncc3ccccc32)s1` [Example 24, 5-((1H-Indazol-1-yl)methyl)-N-(2-aminophenyl)thiophene-2-carboxamide], 100 to 500 nM.
In the case of `Nc1ccccc1NC(=O)c1ccc(Cn2cc3cccnc3n2)cc1` [Example 25, 4-((2H-Pyrazolo[3,4-b]pyridin-2-yl)methyl)-N-(2-aminophenyl)benzamide] it was 100 to 500 nM.
Regarding `Nc1ccc(-c2ccccc2)cc1NC(=O)c1ccc(Cn2cc3cccnc3n2)cc1` [Example 26, N-(4-Amino-biphenyl-3-yl)-4-pyrazolo[3,4-b]pyridin-2-ylmethyl-benzamide], the IC50 was ≤ 50 nM.
In the case of `Nc1ccc(-c2ccccc2)cc1NC(=O)c1ccc(Cn2cc3ccccc3n2)cc1` [Example 27, N-(4-Amino-biphenyl-3-yl)-4-indazol-2-ylmethyl-benzamide] it was ≤ 50 nM; in that of `Cc1nn(Cc2ccc(C(=O)Nc3ccccc3N)cc2)c2ccccc12` [Example 28, N-(2-Aminophenyl)-4-((3-methyl-1H-indazol-1-yl)methyl)benzamide], 50 to 100 nM; in that of `Cc1c2ccccc2nn1Cc1ccc(C(=O)Nc2ccccc2N)cc1` [Example 29, N-(2-Aminophenyl)-4-((3-methyl-2H-indazol-2-yl)methyl)benzamide], 50 to 100 nM.
To `Nc1ccccc1NC(=O)c1ccc(CNc2n[nH]c3ccccc23)cc1` [Example 30, 4-((1H-indazol-3-ylamino)methyl)-N-(2-aminophenyl)benzamide] belongs 50 to 100 nM; to `Nc1ccccc1NC(=O)c1ccc(Cn2cccn2)cc1` [Example 31, 4-((1H-pyrazol-1-yl)methyl)-N-(2-aminophenyl)benzamide], ≥ 500 nM; to `COC(=O)c1ccc(N)c(NC(=O)c2ccc(Cn3cc4ccccc4n3)cc2)c1` [Example 33, Methyl 3-(4-((2H-indazol-2-yl)methyl)benzamido)-4-aminobenzoate], ≥ 500 nM.
To `Cc1cnn(Cc2ccc(C(=O)Nc3ccccc3N)cc2)c1` [Example 34, N-(2-aminophenyl)-4-((4-methyl-1H-pyrazol-1-yl)methyl)benzamide] belongs 100 to 500 nM; to `Nc1ccccc1NC(=O)c1ccc(Cn2cc3ccc(F)cc3n2)cc1` [Example 35, N-(2-aminophenyl)-4-((6-fluoro-2H-indazol-2-yl)methyl)benzamide], 50 to 100 nM.
`Nc1ccccc1NC(=O)c1ccc(Cn2ncc3ccc(F)cc32)cc1` [Example 36, N-(2-aminophenyl)-4-((6-fluoro-1H-indazol-1-yl)methyl)benzamide] returned an IC50 of 50 to 100 nM.
In the case of `Nc1ccccc1NC(=O)c1ccc(Cn2ncc3cc(F)ccc32)cc1` [Example 37, N-(2-aminophenyl)-4-((5-fluoro-1H-indazol-1-yl)methyl)benzamide], the IC50 is 50 to 100 nM.
`Nc1ccccc1NC(=O)c1ccc(Cn2cc3cc(F)ccc3n2)cc1` [Example 38, N-(2-aminophenyl)-4-((5-fluoro-2H-indazol-2-yl)methyl)benzamide]: the 50% inhibitory concentration (IC50) is ≤ 50 nM.
In the case of `CC(Cn1ncc2ccccc21)c1ccc(C(=O)Nc2ccccc2N)cc1` (centres unmarked) [Example 39, 4-(1-(1H-indazol-1-yl)propan-2-yl)-N-(2-aminophenyl)benzamide] it was ≥ 500 nM; in that of `Nc1ccccc1NC(=O)c1ccc(CCn2ncc3ccccc32)cc1` [Example 40, 4-(2-(1H-indazol-1-yl)ethyl)-N-(2-aminophenyl)benzamide], 100 to 500 nM; in that of `Nc1ccccc1NC(=O)c1ccc(CCn2cc3ccccc3n2)cc1` [Example 41, 4-(2-(2H-indazol-2-yl)ethyl)-N-(2-aminophenyl)benzamide], 50 to 100 nM.
In the case of `Nc1ccccc1NC(=O)c1ccc(Cn2ncc3c(Cl)cccc32)cc1` [Example 42, N-(2-aminophenyl)-4-((4-chloro-1H-indazol-1-yl)methyl)benzamide] it was ≤ 50 nM.
In the case of `Nc1ccccc1NC(=O)c1ccc(Cn2cc3c(Cl)cccc3n2)cc1` [Example 43, N-(2-aminophenyl)-4-((4-chloro-2H-indazol-2-yl)methyl)benzamide] it was ≤ 50 nM; in that of `Nc1ccccc1NC(=O)c1ccc(Cn2ncc3c(F)cc(F)cc32)cc1` [Example 44, N-(2-aminophenyl)-4-((4,6-difluoro-1H-indazol-1-yl)methyl)benzamide], 50 to 100 nM.
Regarding `Nc1ccccc1NC(=O)c1ccc(Cn2cc3c(F)cc(F)cc3n2)cc1` [Example 45, N-(2-aminophenyl)-4-((4,6-difluoro-2H-indazol-2-yl)methyl)benzamide], the 50% inhibitory concentration (IC50) is 50 to 100 nM.
